Experimental data: patent US6559170B1, “Pyridine derivatives having fungicidal activity and processes to produce and use same” (Dow AgroScience LLC, priority 1999, dated 2003)

Assays:
[1] = system: Leptosphaeria nodorum—LEPTNO; experiment: Glume blotch of wheat, 1-day protectant whole plant test; type: in vivo; settings: 100 ppm spray, 1-day protectant (1DP), wheat cultivar Monon
[2] = system: Puccinia recondita—PUCCRT; experiment: Brown rust of wheat, 1-day protectant whole plant test; type: in vivo; settings: 100 ppm spray, 1-day protectant (1DP), wheat cultivar Monon
Erysiphe graminis—ERYSGT = experiment: Powdery Mildew of Wheat, 1-day protectant whole plant test; type: in vivo; settings: 100 ppm spray, 1-day protectant (1DP), wheat cultivar Monon
[3] = system: Phytophthora infestans—PHYTIN; type: in vivo; settings: 100 ppm spray, 1-day protectant (1DP), tomatoes cultivar Rutgers

In the case of `CNC(=O)C(=NOC)c1cccc(Cl)c1COc1ccc(Sc2ccc(C)cc2)cn1` [Compound 4, 2-Methoxyimino-N-methyl-{3-chloro-2-[5-(4-methylphenyl)thio-2-pyridyloxy]methylphenyl}acetamide], the “LEPTNO percent control of the plant disease compared with untreated, inoculated plants” value (“LEPTNO percent control” for short) [1] is reported as 98%, the “PUCCRT percent control of the plant disease compared with untreated, inoculated plants” value (“PUCCRT percent control” below) [2] is reported as 99% and the “ERYSGT percent control of the plant disease compared with untreated, inoculated plants” value (shortened to “ERYSGT percent control”) (Erysiphe graminis—ERYSGT) is reported as 67%. For the same compound, the “PHYTIN percent control of the plant disease compared with untreated, inoculated plants” value (“PHYTIN percent control” for short) [3] was 89% and the melting point was 100 to 102 °C.
With `CNC(=O)C(=NOC)c1cccc(Cl)c1COc1ccc(Sc2ccc(Cl)cc2)cn1` [Compound 5, 2-Methoxyimino-N-methyl-{3-chloro-2-[5-(4-chlorophenyl)thio-2-pyridyloxy]methylphenyl}acetamide] the “LEPTNO percent control” value [1] was 98%, the “PUCCRT percent control” value [2] was 100% and the “ERYSGT percent control” value (Erysiphe graminis—ERYSGT) was 85%. The “PHYTIN percent control” value [3] was 99% and the melting point was 116 to 118 °C.
In the case of `CNC(=O)C(=NOC)c1ccccc1COc1ncc(Sc2ccccc2)cc1Cl` [Compound 3, 2-Methoxyimino-N-methyl-[2-(3-chloro-5-phenylthio-2-pyridyloxy)methylphenyl]acetamide], the “LEPTNO percent control” value [1] is reported as 90%, the “PUCCRT percent control” value [2] is reported as 98% and the “ERYSGT percent control” value (Erysiphe graminis—ERYSGT) is reported as 85%. For the same compound, the “PHYTIN percent control” value [3] was 90% and the melting point was 84 to 86 °C.
With `CNC(=O)C(=NOC)c1ccccc1COc1ccc(Sc2ccccc2)cn1` [Compound 6, 2-Methoxyimino-N-methyl-[2-(5-phenylthio-2-pyridyloxy)methylphenyl]acetamide] the “LEPTNO percent control” value [1] was 98%, the “PUCCRT percent control” value [2] was 98% and the “ERYSGT percent control” value (Erysiphe graminis—ERYSGT) was 80%. The “PHYTIN percent control” value [3] was 90% and the melting point was 95 to 96 °C.
In the case of `CNC(=O)C(=NOC)c1ccccc1COc1cccc(Sc2ccccc2F)n1` [Compound 27], the “LEPTNO percent control” value [1] is reported as 98%, the “PUCCRT percent control” value [2] is reported as 100% and the “ERYSGT percent control” value (Erysiphe graminis—ERYSGT) is reported as 77%. The “PHYTIN percent control” value [3] was 100%.
In the case of `CNC(=O)C(=NOC)c1ccccc1COc1cccc(Sc2ccc3ccccc3c2)n1` [Compound 21], the “LEPTNO percent control” value [1] is reported as 98%, the “PUCCRT percent control” value [2] is reported as 100% and the “ERYSGT percent control” value (Erysiphe graminis—ERYSGT) is reported as 92%. For the same compound, the “PHYTIN percent control” value [3] was 100%.
